Measurements reported in BindingDB's records for PubMed 1994002 (National Institute of Neurological Disorders and Stroke, 1991).
“And” between values parts separate entries of the source, which are not always exact repeats. Equal entries are not always repeated.

Tests used:
[1] = target: T1, Muscarinic acetylcholine receptor M5 (Homo sapiens, UniProt P08912)
T1 sequence (P08912 whole entry): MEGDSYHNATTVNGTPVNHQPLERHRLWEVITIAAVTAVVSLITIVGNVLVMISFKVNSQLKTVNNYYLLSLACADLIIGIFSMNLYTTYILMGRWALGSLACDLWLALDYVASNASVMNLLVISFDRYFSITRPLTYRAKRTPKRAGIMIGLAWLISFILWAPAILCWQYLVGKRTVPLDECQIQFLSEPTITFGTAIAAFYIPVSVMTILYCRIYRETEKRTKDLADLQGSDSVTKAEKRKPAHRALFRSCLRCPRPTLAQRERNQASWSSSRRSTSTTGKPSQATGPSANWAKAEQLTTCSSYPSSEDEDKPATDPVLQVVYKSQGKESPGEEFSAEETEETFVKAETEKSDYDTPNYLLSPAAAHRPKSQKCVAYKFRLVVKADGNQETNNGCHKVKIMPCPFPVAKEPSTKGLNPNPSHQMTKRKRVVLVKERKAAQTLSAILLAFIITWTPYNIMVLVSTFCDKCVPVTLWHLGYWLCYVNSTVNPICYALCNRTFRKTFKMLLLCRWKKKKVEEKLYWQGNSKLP

[2] = target: T2, Muscarinic acetylcholine receptor M2 (Homo sapiens, UniProt P08172)
T2 sequence (P08172 whole entry): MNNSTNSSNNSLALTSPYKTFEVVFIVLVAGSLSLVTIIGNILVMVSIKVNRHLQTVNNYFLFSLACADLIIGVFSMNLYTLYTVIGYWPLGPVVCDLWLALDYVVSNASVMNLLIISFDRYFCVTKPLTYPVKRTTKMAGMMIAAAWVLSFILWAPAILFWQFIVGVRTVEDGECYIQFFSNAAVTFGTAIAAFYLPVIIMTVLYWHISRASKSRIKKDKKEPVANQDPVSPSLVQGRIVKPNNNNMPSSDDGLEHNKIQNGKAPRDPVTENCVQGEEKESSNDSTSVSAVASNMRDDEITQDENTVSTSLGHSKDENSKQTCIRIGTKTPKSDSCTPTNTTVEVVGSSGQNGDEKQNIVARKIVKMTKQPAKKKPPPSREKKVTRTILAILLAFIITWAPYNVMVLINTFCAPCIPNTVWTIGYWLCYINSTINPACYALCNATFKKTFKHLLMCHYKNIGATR

[3] = target: T3, Muscarinic acetylcholine receptor M4 (Homo sapiens, UniProt P08173)
T3 sequence (P08173 whole entry): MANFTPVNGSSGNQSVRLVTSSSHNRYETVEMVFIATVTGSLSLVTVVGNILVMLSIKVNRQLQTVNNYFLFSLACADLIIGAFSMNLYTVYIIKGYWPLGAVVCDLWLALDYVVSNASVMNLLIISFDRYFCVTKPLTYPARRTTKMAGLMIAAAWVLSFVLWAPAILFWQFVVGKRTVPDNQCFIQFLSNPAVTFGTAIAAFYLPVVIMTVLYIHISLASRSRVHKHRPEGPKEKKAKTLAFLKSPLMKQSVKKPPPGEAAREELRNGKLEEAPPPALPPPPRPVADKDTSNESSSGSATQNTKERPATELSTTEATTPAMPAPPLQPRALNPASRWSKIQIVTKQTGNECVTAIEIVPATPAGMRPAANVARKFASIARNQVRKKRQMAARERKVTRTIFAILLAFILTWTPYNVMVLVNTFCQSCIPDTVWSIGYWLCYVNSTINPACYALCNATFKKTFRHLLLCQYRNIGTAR

Compound | Ki [3] | Ki [1] [nM] | Ki [2]
C[N+]1(C)CCC(OC(=O)C(c2ccccc2)c2ccccc2)CC1 | – | 1.05 | –
CCCN(CCC)CC1CCCCN1CCNC(=O)N1c2ccccc2C(=O)Nc2cccnc21 (stereo not drawn) | 10 nM | 537 | 6.03 nM
O[Si](CCCN1CCCCC1)(c1ccc(F)cc1)C1CCCCC1 (stereo not drawn) [CAS_5311091] | 31.6 nM | 93.3 | 132 nM
C[C@H]1OC(=O)C2C[C@H]3CCCC[C@@H]3[C@@H](/C=C/[C@@H]3CCC[C@H](C)N3C)C21 (stereo partly drawn) [HIMBACINE] | – | 490 | 10 nM

Second part, led by results:

Ki [3] | Compound | Ki [1] [nM] | Ki [2]
162 nM | CCN(CC)CC1CCCCN1CC(=O)N1c2ccccc2NC(=O)c2ccccc21 (single isomer, unassigned; (+)) [CAS_121029-35-4] | 3020 | 55 nM
31.6 nM | COc1ccccc1CNCCCCCCNCCCCCCCCNCCCCCCNCc1ccccc1OC [METHOCTRAMINE] | 135 | –
6.46 nM | CCN(CC)CCCCC1CCN(CC(=O)N2c3ccccc3C(=O)Nc3cccnc32)CC1 [NSC_129989] | 832 | –
3.02 nM and 19.5 nM | OC(C#CCN1CCCCC1)(c1ccccc1)C1CCCCC1 (stereo not drawn) [NSC_2054314] | – | 20.9 nM and 72.4 nM
